Results published in PMC12172326 (Journal of Biomedical Science, 2025).

Tests used:
[1] = ex vivo stability in mouse plasma; type: in vitro ADME; conditions: 100 μg/ml, room temperature, 0-180 min
Experimental: (§1) An ex vivo evaluation of drug stability was conducted in mouse and human plasma samples (WuXi AppTec, Shanghai, China). […] Samples were, thereafter, incubated at room temperature for 0, 15, 30, 60, 120, and 180 min before immediate drug extraction. […] Extraction was performed by adding ethyl acetate containing the internal standard (donepezil—known to undergo first-pass hepatic metabolism) to the spiked sample (100 μL), vortexed for 1 min, and centrifuged at 13,000 rpm, 4 °C for 10 min. The supernatant was used for LC–MS/MS analysis.
(§2) LC–MS/MS analysis was performed with a Vanquish Flex UHPLC (Thermo Scientific) and a Orbitrap Exploris 240 mass spectrometer (Thermo Scientific). Samples were separated on a C18 UHPLC column (100 mm × 2.1 mm, 3 μm; Thermo Scientific). The mobile phase A for LC separation was 0.1% formic acid and the mobile phase B was 0.1% formic acid in methanol. The chromatography gradient was designed for a linear increase from 5% B in 1 min, 5% B to 95% B in 8 min, 95% B in 3 min, and 5% B in 3 min. The flow rate was maintained at 0.3 mL/min. Mass spectra were acquired using the data-dependent Top 4 MS2 (ddMS2) method with a mass scan (100–1000 m/z) and 120,000 MS resolution.

[2] = ex vivo stability in human plasma; type: in vitro ADME; conditions: 100 μg/ml, room temperature, 0-180 min
Experimental: as §1, §2

[3] = cited from earlier work
p-glycoprotein = tested on: p-glycoprotein; design: method as in PMID 21825263; conditions: cited from earlier work
SALL4 = SALL4 degradation, Western blot in Tera-1 cells; type: cell-based, human; conditions: 4 h, 0.1 to 10 μM, SALL4/GAPDH, read-out: IC50 to lower SALL4 protein expression
Experimental: (§3) This cell line was obtained from the Korean Cell Line Bank (catalog no. 30105; Seoul, Korea), grown in DMEM (supplemented with 10% FBS, penicillin 100 U/mL and streptomycin 100 μg/mL, and maintained at 37 °C and 5% CO2). […] These were grown in RPMI media supplemented with 10% FBS, penicillin 100 U/mL, and streptomycin […], and maintained at 37 °C and 5% CO2. MM.1S cells were treated with drug (0.1 to 10 μM) for 4 h, and their cell lysates were prepared for Western blot analysis, as described previously.
(§4) For Western blot analysis, total proteins were extracted using RIPA buffer (Thermo Fisher Scientific, Waltham, MA) containing Halt Protease Inhibitor Cocktail (Thermo Fisher Scientific). Thereafter, proteins were separated by gel electrophoresis and then transferred to polyvinylidene difluoride (PVDF) membranes (Thermo Fisher Scientific), as detailed previously. The following primary antibodies were used: (i) anti-SALL4 antibody (catalog no. ab29112; 1:1000; Abcam, UK); (ii) anti-Aiolos antibody (catalog no. 15103; 1:1000; Cell Signaling Technology, Danvers, MA, USA); and (iii) anti-GAPDH antibody (catalog no. ab8245; 1:5000; Abcam, Cambridge, UK). […] Antigen–antibody complexes were detected using enhanced chemiluminescence (Thermo Fisher Scientific, iBright CL1500).

Aiolos = Aiolos degradation, Western blot in MM.1S cells; type: cell-based, human; conditions: 4 h, 0.1 to 10 μM, Aiolos/GAPDH, read-out: IC50 to lower Aiolos protein expression
Experimental: as §3, §4

Nc1cccc2c1C(=S)N(C1CCC(=S)NC1=O)C2=O (stereo not drawn) [3,6′-DTP, 3,6′-dithiopomalidomide, reference compound]
ex vivo stability in mouse plasma [1]: rapidly disappears | ex vivo stability in human plasma [2]: rapidly disappears

Nc1cccc2c1CN(C1CCC(=O)NC1=O)C2=O (stereo not drawn) [Lenalidomide]
CSF/plasma ratio [3]: 0.11 | substrate for the efflux transporter p-glycoprotein (p-glycoprotein): substrate

Nc1cccc2c1C(=O)N(C1CCC(=O)NC1=O)C2=O (stereo not drawn) [Pom, Pomalidomide]
IC50 (SALL4): 40 nM | IC50 (Aiolos): 60 nM
